From ChEMBL document CHEMBL5154875, “Discovery of Potent Orally Bioavailable WD Repeat Domain 5 (WDR5) Inhibitors Using a Pharmacophore-Based Optimization” (J Med Chem, 2022)
Values after ≈ are worked out from the molar mass of the structure shown.

Legend:
[1] = biological target: T1, WD repeat-containing protein 5 (Homo sapiens, UniProt P61964); assay: Inhibition of N-terminal 6xHis-SUMO-tagged human WDR5 (22 to 334 residues) expressed in Escherichia coli BL21-Gold (DE3) cells assessed as inhibition constant incubated for 1 hr by TR-FRET assay
[2] = test system: MOLM-13; assay: Anti-proliferative activity against human MOLM-13 cells assessed as inhibition of cell proliferation incubated for 5 days by Cell Titre Glo luminescent assay; format: functional; settings: time 5 day
[3] = Clearance in CD-1 mouse at 3 mg/kg, iv measured 0.083 to 24 hrs post-treatment by LC-MS/MS analysis; settings: in vivo, BLD = below limit of detection
[4] = Volume of distribution at steady state in CD-1 mouse at 3 mg/kg, iv measured 0.083 to 24 hrs post-treatment by LC-MS/MS analysis; format: ADME, organism-based; settings: in vivo, time 0.083-24 hrs; for Vdss: mouse, iv, 3 mg/kg; for Vd: CD-1, mouse, read-out: Vdss
[5] = AUC (0 to infinity) in CD-1 mouse at 3 mg/kg, iv measured 0.083 to 24 hrs post-treatment by LC-MS/MS analysis; format: ADME, organism-based; design: time upper 24 hrs, time lower 0.083 hrs, dose 3 mg/kg, route iv; settings: in vivo; for AUC: mouse; for AUC(0-inf): CD-1, mouse
[6] = test system: MV4-11; assay: Anti-proliferative activity against human MV4-11 cells assessed as inhibition of cell proliferation incubated for 5 days by Cell Titre Glo luminescent assay; format: functional; settings: time 5 day
[7] = Effective permeability of compound in PBS at pH 7.4 at 100 uM incubated for 5 hrs by PAMPA assay; format: ADME; settings: pH 7.4, 5 h
[8] = Acute toxicity in CD-1 mouse assessed as lethality at 3 mg/kg, iv measured 0.083 to 24 hrs post-treatment by LC-MS/MS analysis; format: organism-based; settings: in vivo, time 0.083-24 hrs
[9] = Kinetic aqueous solubility of compound at pH 7.4; format: physicochemical; settings: buffer
[10] = Acute toxicity in CD-1 mouse assessed as lowered body temperature at 3 mg/kg, iv measured 0.083 to 24 hrs post-treatment by LC-MS/MS analysis; format: organism-based; settings: in vivo, time 0.083-24 hrs
[11] = Acute toxicity in CD-1 mouse assessed as reduced locomotive activity at 3 mg/kg, iv measured 0.083 to 24 hrs post-treatment by LC-MS/MS analysis; format: organism-based; settings: in vivo, time 0.083-24 hrs
[12] = test system: K562; assay: Anti-proliferative activity against human K562 cells assessed as inhibition of cell proliferation incubated for 5 days by Cell Titre Glo luminescent assay; format: functional; settings: time 5 day
[13] = Half life in CD-1 mouse at 10 mg/kg, po measured 0.083 to 24 hrs post-treatment by LC-MS/MS analysis; format: ADME, organism-based; settings: in vivo, time 0.083-24 hrs; for t1/2: mouse, po, 10 mg/kg; for half-life: CD-1, mouse
[14] = Cmax in CD-1 mouse at 10 mg/kg, po measured 0.083 to 24 hrs post-treatment by LC-MS/MS analysis; format: ADME, organism-based; design: time lower 0.083 hrs, dose 10 mg/kg, time upper 24 hrs, route po; settings: in vivo
[15] = biological target: T1, WD repeat-containing protein 5; assay: Competitive binding affinity to N-terminal 6xHis-SUMO-tagged human WDR5 (22 to 334 residues) expressed in Escherichia coli BL21-Gold (DE3) cells assessed as inhibition constant using 10-mer-Thr-FAM peptide as substrate incubated for 1 hr by Lantha Screen based TR-FRET assay
[16] = Metabolic stability of compound in rat liver microsome assessed as half life at 1 uM measured upto 45 mins by LCMS analysis; format: ADME, microsomes; settings: for t1/2: microsomes, 0.75 h, 1 µM
[17] = Oral bioavailability in CD-1 mouse at 10 mg/kg measured 0.083 to 24 hrs post-treatment by LC-MS/MS analysis; format: ADME, organism-based; settings: in vivo, time 0.083-24 hrs; for F: mouse, po, 10 mg/kg; for bioavailability: CD-1, mouse
[18] = Metabolic stability of compound in rat liver microsome assessed as intrinsic clearance at 1 uM measured upto 45 mins by LCMS analysis; format: ADME, microsomes; settings: for CLH: microsomes, 0.75 h, 1 µM
[19] = AUC (0 to infinity) in CD-1 mouse at 10 mg/kg, po measured 0.083 to 24 hrs post-treatment by LC-MS/MS analysis; format: ADME, organism-based; design: dose 10 mg/kg, time upper 24 hrs, time lower 0.083 hrs, route po; settings: in vivo; for AUC: mouse; for AUC(0-inf): CD-1, mouse
[20] = Kinetic solubility of compound in PBS at pH 7.4 at 100 uM incubated for 1 hr by UV-visible spectroscopy analysis; format: physicochemical; settings: for Kinetic_solubility: buffer, pH 7.4, 1 h, 100 µM; for solubility kinetic at 1 h, 100 µM: PBS, pH 7.4, read-out: Kinetic_solubility
[21] = biological target: T1, WD repeat-containing protein 5; assay: Inhibition of 5- FAM labeled tracer binding to N-terminal His6-SUMO-tagged WDR5 (24 to 334 residues) (unknown origin) expressed in Escherichia coli Rosetta 2 (DE3) cells incubated for 3 hrs by fluorescence polarization based competitive binding assay
[22] = biological target: Histone-lysine N-methyltransferase 2A/WDR5 (Homo sapiens, UniProt P61964); assay: Inhibition of MLL1-WDR5 (unknown origin) interaction using 10mer-Thr-FAM as substrate by fluorescence polarization based competitive binding assay; format: protein assay
[23] = test system: MV4-11; assay: Anti-proliferative activity against human MV4-11 cells harboring MLL fusion protein assessed as inhibition of cell viability treated for 72 hrs by CCK-8 assay; format: functional, cell-based; settings: MV4-11, 72 h
[24] = Clearance in CD-1 mouse at 3 mg/kg, iv measured 0.083 to 24 hrs post-treatment by LC-MS/MS analysis; format: ADME, organism-based; settings: in vivo, time 0.083-24 hrs

| Structure (SMILES) | GI50 ([2]; Homo sapiens, MOLM-13, 120 h) [nM] | Vdss [4] [L/kg] | AUC [5] [µg·h/mL] | GI50 ([6]; Homo sapiens, MV4-11, 120 h) [nM] | GI50 ([12]; Homo sapiens, K562, 120 h) [nM] | Ki [15] [nM] | Vd [4] [L/kg] | Cmax ([14]; CD-1, mouse, read-out: Cmax) [µg/mL] | bioavailability [17] [%] | AUC(0-inf) [5] [µg·h/mL] | clearance [24] [L/h/kg] | AUC(0-inf) [19] [µg·h/mL] | solubility kinetic at 1 h, 100 µM [20] [µM] | further results |
| --- | --- | --- | --- | --- | --- | --- | --- | --- | --- | --- | --- | --- | --- | --- |
| COc1cc(CN2CCc3c(cc(Cn4ccn(C)c4=N)cc3-c3ccc(F)cc3C)C2=O)cc(OC)c1 | 78 | 16 | 0.642 | 38 | 8000 | – | – | – | – | – | – | – | – | Ki [1]: < 0.02 nM; CL [3]: Bld; permeability [7]: < 0.6 10^-6 cm/s; Activity [8]: Toxic; Kinetic_solubility [9]: 29 µM; Activity [10]: Toxic; Activity [11]: Toxic |
| CCn1cc(-c2cc(Cn3ccnc3C)cc3c2CCN([C@@H](C)c2cc(OC)ccn2)C3=O)c(C(F)(F)F)n1 (stereo in doubt; 34) | 26 | 3.8 | 0.429 | 11 | 2200 | < 0.02 | – | – | – | – | – | – | – | t1/2 [13]: 1.2 h; Cmax ([14]; mouse): 0.279 µg/mL; t1/2 [16]: 0.2 h; F [17]: 28%; CLH [18]: 60 µL/min/mg; AUC [19]: 0.397 µg·h/mL; Kinetic_solubility [20]: 80 µM |
| CC[C@@H]1NC(=O)[C@H](CCCNC(=N)NC)NC(=O)[C@](C)(NC(=O)C(C)C)CCNC(=O)[C@@H](c2ccccc2)NC1=O | – | – | – | – | – | – | – | – | – | – | – | – | – | Ki [21]: < 1 nM |
| CN1CCN(c2cc(F)c(-c3ccc(NC(=O)N(C)C)cc3)cc2Nc2ncnc(Cl)c2N)CC1 | – | – | – | – | – | – | – | – | – | – | – | – | – | IC50 [22]: 29 nM; IC50 [23]: 12600 nM |
| CCn1cc(-c2cc(Cn3ccnc3C)cc3c2CCN([C@H](c2cc(C)ccn2)C2CC2)C3=O)c(C(F)(F)F)n1 | 43 | 1.1 | 2.075 | 17 | 2500 | < 0.02 | – | – | – | – | – | – | – | t1/2 [13]: 1.2 h; Cmax ([14]; mouse): 1.083 µg/mL; F [17]: 15%; AUC [19]: 1 µg·h/mL; Kinetic_solubility [20]: 66 µM |
| COc1ccnc(CN2CCc3c(cc(Cn4ccnc4C)cc3-c3cn(C)nc3C(F)(F)F)C2=O)c1 | 39 | – | – | 24 | 9500 | < 0.02 | – | – | – | – | – | – | – | t1/2 [16]: 0.0533 h; CLH [18]: 220 µL/min/mg |
| CCn1cc(-c2cc(Cn3ccnc3)cc3c2CCN([C@@H](c2cc(OC)ccn2)C2CC2)C3=O)c(C(F)(F)F)n1 | 27 | – | – | 13 | 3700 | – | 1.6 | 2.08 | 61 | 1.95 | 1.56 | 3.98 | 60 (≈ 33 µg/mL) | half-life [13]: 1.3 h |
| CCn1cc(-c2cc(Cn3ccnc3C)cc3c2CCN([C@@H](c2cc(OC)ccn2)C2CC2)C3=O)c(C(F)(F)F)n1 | 36 | – | – | 15 | 2600 | – | 1.6 | 0.652 | 12 | 1.24 | 2.46 | 0.508 | 65 (≈ 36.7 µg/mL) | half-life [13]: 1.4 h |
| CCn1cc(-c2cc(Cn3ccnc3C)cc3c2CCN([C@@H](C)c2cc(OC)ccn2)C3=O)c(C(F)(F)F)n1 (stereo in doubt; 38) | – | – | – | – | – | – | 2.3 | 2.01 | 73 | 0.707 | 4.56 | 1.71 | 86 (≈ 46.3 µg/mL) | GI50 ([2]; 120 h): 19 nM; half-life at 1 µM ([16]; liver microsomes): 0.367 h; microsomal CLint at 1 µM ([18]; liver microsomes, read-out: CLH): 31 µL/min/mg; GI50 ([6]; 120 h): 9.7 nM; GI50 ([12]; 120 h): 1900 nM |
